From the supplement of paper PMC6045584
± gives the standard deviation of the averaged measurements.

Tests used:
GEFITINIB = compound: COc1cc2ncnc(Nc3ccc(F)c(Cl)c3)c2cc1OCCCN1CCOCC1 [GEFITINIB]; test: surviving fraction relative to DMSO-only wells; higher = less growth inhibition; conditions: exposure time: 5 days
Outline: (§1)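 Log-phase tumour cell lines, 250–500 cells per well in 384-well plates, received inhibitors at 0.5, 1, 5, 10, 50, 100, 500 and 1000 nM continuously for five days, starting 24 hours after seeding. Viability was quantified with CellTiter-Glo luminescence and normalised to the median of DMSO-only wells to give surviving fraction. Three screens were run per line, and a line stayed in only with replicate Pearson r >0.7 and median Z' >0.3.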

CELECOXIB = compound: Cc1ccc(-c2cc(C(F)(F)F)nn2-c2ccc(S(N)(=O)=O)cc2)cc1 [CELECOXIB]; test: as above; conditions: exposure time: 5 days
Outline: as §1

Test System	surviving fraction (GEFITINIB; 0.5 nM)	surviving fraction (GEFITINIB; 1 nM)	surviving fraction (GEFITINIB; 5 nM)	surviving fraction (GEFITINIB; 10 nM)	surviving fraction (GEFITINIB; 50 nM)	surviving fraction (GEFITINIB; 100 nM)	surviving fraction (GEFITINIB; 500 nM)	surviving fraction (GEFITINIB; 1000 nM)	surviving fraction (CELECOXIB; 0.5 nM)	surviving fraction (CELECOXIB; 1 nM)	surviving fraction (CELECOXIB; 5 nM)	surviving fraction (CELECOXIB; 10 nM)	surviving fraction (CELECOXIB; 50 nM)	surviving fraction (CELECOXIB; 100 nM)	surviving fraction (CELECOXIB; 500 nM)	surviving fraction (CELECOXIB; 1000 nM)
MDAMB436 BREAST	1.02 ± 0.091	1.01 ± 0.06	0.994 ± 0.026	1.09 ± 0.098	0.993 ± 0.12	1.03 ± 0.084	1.08 ± 0.098	1.08 ± 0.1	0.986 ± 0.11	1.09 ± 0.23	1.03 ± 0.085	1.04 ± 0.11	1.03 ± 0.11	1.03 ± 0.14	0.992 ± 0.076	0.992 ± 0.11
MDAMB453 BREAST	1.09 ± 0.045	1.07 ± 0.078	1.19 ± 0.078	1.1 ± 0.024	1.14 ± 0.053	1.13 ± 0.087	1.06 ± 0.05	1.04 ± 0.039	1.07 ± 0.076	1.1 ± 0.079	1.09 ± 0.072	1.18 ± 0.1	1.14 ± 0.021	1.12 ± 0.03	1.04 ± 0.044	1.09 ± 0.04
MDAMB468 BREAST	1.11 ± 0.097	1.08 ± 0.062	1.14 ± 0.087	1.11 ± 0.02	1.07 ± 0.099	1.028 ± 0.01	0.588 ± 0.026	0.503 ± 0.058	1.05 ± 0.043	1.05 ± 0.097	1.16 ± 0.054	1.17 ± 0.11	1.2 ± 0.12	1.19 ± 0.071	1.22 ± 0.046	1.2 ± 0.098
MFM223 BREAST	1.49 ± 0.61	1.42 ± 0.47	1.51 ± 0.61	1.5 ± 0.53	1.19 ± 0.058	1.19 ± 0.092	1.12 ± 0.035	1.14 ± 0.07	1.41 ± 0.52	1.3 ± 0.2	1.29 ± 0.26	1.33 ± 0.34	1.1 ± 0.034	1.09 ± 0.1	1.05 ± 0.11	1.03 ± 0.017
MG63 BONE	1.02 ± 0.024	0.998 ± 0.013	1.09 ± 0.041	1.08 ± 0.038	1.11 ± 0.046	1.08 ± 0.027	0.999 ± 0.033	1.01 ± 0.033	1.04 ± 0.045	1.04 ± 0.046	1.09 ± 0.038	1.08 ± 0.033	1.09 ± 0.039	1.12 ± 0.042	1.1 ± 0.032	1.06 ± 0.044
MHM BONE	1.01 ± 0.046	1.02 ± 0.038	1.06 ± 0.051	1.05 ± 0.051	1.03 ± 0.012	1.026 ± 0.01	0.9993 ± 0.0096	0.972 ± 0.013	1.01 ± 0.038	1.01 ± 0.027	1.04 ± 0.03	1.08 ± 0.057	1.05 ± 0.041	1.05 ± 0.025	1.009 ± 0.009	1.02 ± 0.028
NCIH441 LUNG	1.17 ± 0.048	1.15 ± 0.064	1.07 ± 0.089	1.114 ± 0.0055	1.07 ± 0.18	1.12 ± 0.18	1.01 ± 0.21	0.963 ± 0.058	1.16 ± 0.019	1.19 ± 0.043	1.1 ± 0.11	1.11 ± 0.035	1.11 ± 0.068	1.06 ± 0.17	1.06 ± 0.14	1.1 ± 0.19
NY BONE	0.999 ± 0.032	1 ± 0.035	1.09 ± 0.036	1.06 ± 0.031	1.07 ± 0.026	1.14 ± 0.016	0.998 ± 0.019	0.969 ± 0.032	0.989 ± 0.03	1.04 ± 0.041	1.09 ± 0.038	1.08 ± 0.022	1.11 ± 0.047	1.1 ± 0.039	1.01 ± 0.021	1.01 ± 0.053
OS25HAL BONE	1.04 ± 0.052	1.04 ± 0.041	1.06 ± 0.035	1.09 ± 0.066	1.09 ± 0.069	1.15 ± 0.019	1.08 ± 0.069	1.05 ± 0.029	1.03 ± 0.017	1.02 ± 0.033	1.06 ± 0.021	1.07 ± 0.022	1.06 ± 0.044	1.1 ± 0.035	1.15 ± 0.08	1.08 ± 0.051
OSHN BONE	1.1 ± 0.012	1.11 ± 0.017	1.12 ± 0.013	1.13 ± 0.026	1.15 ± 0.0076	1.15 ± 0.024	1.142 ± 0.0066	1.11 ± 0.021	1.099 ± 0.0076	1.091 ± 0.0078	1.13 ± 0.018	1.1 ± 0.019	1.132 ± 0.0091	1.15 ± 0.029	1.15 ± 0.023	1.11 ± 0.015
PCI30 HEADNECK	0.996 ± 0.063	1.01 ± 0.051	1.071 ± 0.0044	1.12 ± 0.017	0.959 ± 0.095	0.842 ± 0.028	0.466 ± 0.026	0.393 ± 0.033	1.02 ± 0.095	1 ± 0.057	1.07 ± 0.044	1.07 ± 0.046	1.03 ± 0.12	1.01 ± 0.013	0.975 ± 0.051	0.928 ± 0.038
RDES SOFT TISSUE	1.07 ± 0.13	1.06 ± 0.15	1.05 ± 0.058	1.17 ± 0.079	1.03 ± 0.26	1.22 ± 0.12	1.16 ± 0.19	1.2 ± 0.14	1.11 ± 0.11	1.16 ± 0.14	1.19 ± 0.069	1.11 ± 0.077	1.16 ± 0.25	1.27 ± 0.11	1.17 ± 0.14	1.15 ± 0.045
S68 BREAST	0.936 ± 0.095	0.744 ± 0.17	1.11 ± 0.34	1.09 ± 0.069	1.11 ± 0.23	0.762 ± 0.093	0.728 ± 0.1	0.687 ± 0.22	1.18 ± 0.21	1.07 ± 0.24	1.26 ± 0.17	1.19 ± 0.15	1 ± 0.29	1.21 ± 0.15	0.95 ± 0.34	1.2 ± 0.11
SAOS2 BONE	1.11 ± 0.021	1.04 ± 0.065	1.21 ± 0.035	1.09 ± 0.05	1.12 ± 0.061	1.13 ± 0.06	1.01 ± 0.038	0.907 ± 0.08	1.14 ± 0.078	1.05 ± 0.026	1.187 ± 0.01	1.14 ± 0.06	1.22 ± 0.07	1.23 ± 0.054	1.11 ± 0.021	1.09 ± 0.018
SCC003 HEADNECK	1.02 ± 0.057	1.01 ± 0.056	1.1 ± 0.027	0.995 ± 0.11	0.945 ± 0.026	0.857 ± 0.035	0.54 ± 0.043	0.47 ± 0.029	1.07 ± 0.033	1.1 ± 0.049	1.05 ± 0.034	1.06 ± 0.027	1.12 ± 0.11	1.09 ± 0.049	1.13 ± 0.11	1.08 ± 0.067
SCC36 HEADNECK	1.08 ± 0.091	1.02 ± 0.023	1.13 ± 0.057	0.972 ± 0.057	0.735 ± 0.11	0.643 ± 0.1	0.45 ± 0.03	0.397 ± 0.05	1.05 ± 0.029	0.924 ± 0.11	1.13 ± 0.057	1.09 ± 0.025	1.16 ± 0.12	1.08 ± 0.044	1.13 ± 0.079	1.04 ± 0.14
SCC90 HEADNECK	1.15 ± 0.1	1.06 ± 0.15	1.03 ± 0.023	0.85 ± 0.051	0.804 ± 0.019	0.651 ± 0.057	0.474 ± 0.044	0.465 ± 0.054	0.978 ± 0.063	1.09 ± 0.13	1.09 ± 0.11	1.01 ± 0.077	1.13 ± 0.11	1.01 ± 0.077	0.93 ± 0.048	1.01 ± 0.15
